Patent publication US20180125835A1, “Dosage and Use of an A2A Antagonist” (H. Lundbeck A/S, priority 2014, published 2018)
Changes are numbered by the printed parent chain. Like-named read-outs stand apart in the source and are kept apart here.

Tests used:
A2A receptor [1] = biological target: A2A receptor (Canis lupus familiaris, UniProt P11617); experiment: Adenosine receptor binding affinity, dog A2A
A1 receptor [2] = biological target: T1, A1 receptor (Callithrix jacchus, UniProt U3EV00); experiment: Adenosine receptor binding affinity, marmoset A1
T1 sequence (U3EV00 1-326): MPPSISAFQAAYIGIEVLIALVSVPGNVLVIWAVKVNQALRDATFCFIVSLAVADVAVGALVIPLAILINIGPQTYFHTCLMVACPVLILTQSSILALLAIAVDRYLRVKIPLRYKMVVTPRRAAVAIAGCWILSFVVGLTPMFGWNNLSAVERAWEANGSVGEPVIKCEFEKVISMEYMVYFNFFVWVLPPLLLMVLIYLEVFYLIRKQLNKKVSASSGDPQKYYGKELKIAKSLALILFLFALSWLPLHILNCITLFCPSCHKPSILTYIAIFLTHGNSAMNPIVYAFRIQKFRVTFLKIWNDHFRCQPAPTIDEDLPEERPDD

A2A receptor [3] = biological target: A2A receptor (Callithrix jacchus, UniProt A0A8I3X4X6); experiment: Adenosine receptor binding affinity, marmoset A2A
A2A receptor (Callithrix jacchus, UniProt A0A8I3X4X6), sequence (A0A8I3X4X6 1-410): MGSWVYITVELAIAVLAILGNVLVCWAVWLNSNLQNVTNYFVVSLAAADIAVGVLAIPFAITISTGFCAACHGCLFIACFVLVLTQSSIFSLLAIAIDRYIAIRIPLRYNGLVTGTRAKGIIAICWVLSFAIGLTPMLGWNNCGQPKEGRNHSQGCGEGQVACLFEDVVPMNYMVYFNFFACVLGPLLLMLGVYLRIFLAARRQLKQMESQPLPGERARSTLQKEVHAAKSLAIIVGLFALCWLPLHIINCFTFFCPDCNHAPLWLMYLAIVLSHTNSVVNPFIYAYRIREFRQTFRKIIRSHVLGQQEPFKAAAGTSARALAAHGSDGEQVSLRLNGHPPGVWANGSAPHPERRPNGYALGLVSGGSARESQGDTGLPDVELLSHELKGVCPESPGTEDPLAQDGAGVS

A1 receptor [4] = biological target: T2, A1 receptor (Homo sapiens, UniProt P30542); experiment: Adenosine receptor binding affinity, human A1
T2 sequence (P30542 1-326): T1 sequence (U3EV00 1-326) with E157A, V162M, T314P

[5] = system: 57 counter-screen targets (receptors, ion channels and transporters); experiment: Counter-screen binding panel of CNS targets
[6] = PET study, pharmacokinetic assessments; assay type: in vivo; settings: human, plasma, single oral doses 0.5 to 5 mg
Description: The pharmacokinetic parameters of compound 504 were estimated using non-compartmental analysis.

A1 receptor [7] = biological target: T3, A1 receptor (Rattus norvegicus, UniProt P25099); experiment: Adenosine receptor binding affinity, rat A1
T3 sequence (P25099 1-326): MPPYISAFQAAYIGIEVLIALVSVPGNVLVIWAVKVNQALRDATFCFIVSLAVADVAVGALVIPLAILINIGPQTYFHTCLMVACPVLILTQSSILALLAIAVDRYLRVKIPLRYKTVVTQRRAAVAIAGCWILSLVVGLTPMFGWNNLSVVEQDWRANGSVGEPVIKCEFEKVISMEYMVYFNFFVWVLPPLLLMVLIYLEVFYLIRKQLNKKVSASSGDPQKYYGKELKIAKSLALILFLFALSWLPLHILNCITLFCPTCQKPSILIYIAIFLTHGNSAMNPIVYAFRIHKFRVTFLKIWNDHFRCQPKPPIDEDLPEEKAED

A2A receptor [8] = biological target: A2A receptor (Homo sapiens, UniProt P29274); experiment: PET study in humans of A2A receptor occupancy with [11C]-SCH442416; assay type: in vivo; settings: for EC50: plasma concentration at PET scan, read-out: estimated EC50 of A2A receptor occupancy (converted)
A2A receptor (Homo sapiens, UniProt P29274), sequence (P29274 whole entry): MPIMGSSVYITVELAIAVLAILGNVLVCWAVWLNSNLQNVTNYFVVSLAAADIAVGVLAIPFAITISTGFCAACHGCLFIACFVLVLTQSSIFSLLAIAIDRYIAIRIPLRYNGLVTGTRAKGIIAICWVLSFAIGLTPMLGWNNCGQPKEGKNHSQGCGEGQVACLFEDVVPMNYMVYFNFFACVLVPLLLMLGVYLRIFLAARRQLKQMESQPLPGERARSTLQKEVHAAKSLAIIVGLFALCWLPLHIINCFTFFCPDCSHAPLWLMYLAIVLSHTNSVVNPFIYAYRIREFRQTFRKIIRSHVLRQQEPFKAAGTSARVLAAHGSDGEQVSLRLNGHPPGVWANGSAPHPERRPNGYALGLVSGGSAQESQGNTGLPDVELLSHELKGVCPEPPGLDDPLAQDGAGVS
Protocol: There were 3 cohorts in the study, each including 2 subjects.
In the Screening period (Days −28 to −4) safety screening procedures were performed and subject eligibility was confirmed following a magnetic resonance imaging (MRI) scan (Days −21 to −2). Eligible subjects were admitted to the clinic on Day −1. […] The subjects received the PET tracer [11C]-SCH442416 immediately prior to each PET scan.
The PET tracer, [11C]-SCH442416 was provided as a radiopharmaceutical in an 11 mL sterile and pyrogen free type 1 glass vial as a solution for intravenous administration. The [11C]-SCH442416 solution consisted of up to 10% ethanol and 90% saline and was administered as an intravenous bolus in approximately […] of the saline/ethanol solution over approximately 20 seconds. Each subject received a maximum of 500 MBq of [11C]-SCH442416 for each PET scan.
PET data were analysed using the simplified reference tissue method (SRTM). […] The SRTM implementation employed directly estimated the binding potential relative to the non-displaceable component (BPND), which can be thought of as a measure of specific binding.
Receptor occupancy (RO) in a region of interest (ROI) can then be calculated directly as: RO=100×(1−BPND(post-dose)/BPND(baseline))
Binding potential and estimated RO were listed and presented graphically versus CPET.

[9] = Safety and tolerability study, adverse events (Parts A, B, C)
Protocol: The study was conducted in three parts: Parts A, B, and C.
Parts A and B were single-dose escalations to determine the safety and tolerability in young healthy men, and in elderly men and women, respectively. Three doses (Cohorts A1 to A3) were tested in healthy young men: 1 mg (N=6), 5 mg (N=6), and 10 mg (N=5); placebo (N=8, total of the three cohorts). […] Two doses (Cohorts B1 and B2) were tested in healthy elderly men and women: 5 mg (N=9 men/4 women), 10 mg (N=4 men/4 women); placebo (N=6 men/4 women, total of the three cohorts). […] A washout period of at least 7 days separated each dose administration.

A1 receptor [10] = biological target: T4, A1 receptor (Canis lupus familiaris, UniProt P11616); experiment: Adenosine receptor binding affinity, dog A1
T4 sequence (P11616 1-326): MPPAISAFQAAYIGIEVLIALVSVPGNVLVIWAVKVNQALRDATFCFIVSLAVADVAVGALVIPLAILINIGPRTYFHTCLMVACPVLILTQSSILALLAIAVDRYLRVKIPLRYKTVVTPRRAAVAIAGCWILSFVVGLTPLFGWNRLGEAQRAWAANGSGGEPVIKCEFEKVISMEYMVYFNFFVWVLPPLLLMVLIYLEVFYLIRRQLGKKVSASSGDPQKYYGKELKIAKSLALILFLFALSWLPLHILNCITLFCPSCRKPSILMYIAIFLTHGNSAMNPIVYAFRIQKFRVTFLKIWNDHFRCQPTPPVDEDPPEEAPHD

[11] = Part A, healthy young men, 1, 5 and 10 mg dose groups
[12] = Part B, healthy elderly, 5 and 10 mg dose groups
[13] = Part C, 5 mg on three occasions

A2A receptor (Canis lupus familiaris, UniProt P11617), sequence (P11617 whole entry): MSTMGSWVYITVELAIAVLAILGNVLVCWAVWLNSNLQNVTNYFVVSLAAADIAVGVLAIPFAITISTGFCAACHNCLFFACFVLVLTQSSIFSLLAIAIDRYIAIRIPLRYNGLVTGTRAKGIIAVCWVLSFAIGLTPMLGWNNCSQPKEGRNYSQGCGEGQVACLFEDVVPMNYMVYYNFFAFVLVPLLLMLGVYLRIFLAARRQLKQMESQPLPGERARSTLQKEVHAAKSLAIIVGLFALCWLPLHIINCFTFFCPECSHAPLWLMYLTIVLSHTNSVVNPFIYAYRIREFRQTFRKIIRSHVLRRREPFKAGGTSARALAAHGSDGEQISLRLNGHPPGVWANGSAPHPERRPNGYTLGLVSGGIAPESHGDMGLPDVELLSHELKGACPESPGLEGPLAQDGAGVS

Structure (SMILES): Cc1ccc(C(=O)Nc2nc(-c3ccco3)c(C(=O)C3CCOCC3)s2)cn1 [Compound 504]
- Ki (A2A receptor [1]): 0.283 ± 0.0269 nM
- Ki (A1 receptor [2]): 305 ± 6.6 nM
- Ki (A2A receptor [3]): 0.113 ± 0.0046 nM
- Ki (A1 receptor [4]): 103 ± 18.4 nM
- affinity for other receptors, ion channels and transporters ([5]; DA, 5-HT, Ach, GABA, Glu, opiates, cannabinoid, calcium, potassium channels, transporters): Little or no affinity
- inhibition of binding ([5]; at 10 μM, any of the 57 counter-screen targets): Less than 50%
- Tmax [6]: 1 to 2 h
- Ki (A1 receptor [7]): 50.7 ± 3.18 nM
- estimated Emax of A2A receptor occupancy (A2A receptor [8]; globus pallidus, Emax model vs CPET): 101%
- EC50 (A2A receptor [8]; globus pallidus): 173 nM
- EC50 (A2A receptor [8]; putamen): 78 nM
- dosage sufficient to reach an occupancy of 80% (A2A receptor [8]; single oral dose, healthy young men): ≤ 3 mg
- insomnia ([9]; Part A, 1 mg group): not reported
- subjects reporting insomnia ([9]; Part A, 5 mg group (N=6)): 4 subjects
- subjects reporting insomnia ([9]; Part A, 10 mg group (N=5)): 5 subjects
- number of AEs [9, 11]: 36
- subjects with AEs [9, 11]: 13 of the 17
- number of severe adverse events ([9]; Part B, 10 mg group): 5
- subjects with severe adverse events ([9]; Part B, 10 mg group): Three
- dose considered to approach the maximum tolerated dose ([9]; Part B, elderly subjects): ~10 mg
- number of AEs [9, 12]: 53
- subjects with AEs [9, 12]: 16 of the 21
- events of mild insomnia ([9]; Part C): 12
- events of moderate insomnia ([9]; Part C): 2
- number of moderate AEs ([9]; Part C): 15
- number of severe AEs ([9]; Part C): 3
- number of AEs [9, 13]: 90
- subjects with AEs [9, 13]: 11 of the 12
- safety and tolerability ([9]; Part C, 5 mg single doses, fed and fasting states): safe and tolerated
- maximal tolerated dosage ([9]; single dose, insomnia limiting): 10 mg
- Ki (A1 receptor [10]): 450 ± 51.1 nM
